Measured values from ChEMBL document CHEMBL4507273 (2021).

Experiments:
[1] = molecular target: Phosphatidylinositol 3-kinase catalytic subunit type 3 (Homo sapiens) (UniProt Q8NEB9); details: Compound concentration 1000.0 nM
[2] = molecular target: T1, Alpha-2C adrenergic receptor (Homo sapiens, UniProt P18825); test: GPCRScan assay: inhibition of Alpha2C; parameters: radioligand conc. used [nm] 0.5 – 1.0, parental cells stable MDCK
T1 sequence (P18825 whole entry): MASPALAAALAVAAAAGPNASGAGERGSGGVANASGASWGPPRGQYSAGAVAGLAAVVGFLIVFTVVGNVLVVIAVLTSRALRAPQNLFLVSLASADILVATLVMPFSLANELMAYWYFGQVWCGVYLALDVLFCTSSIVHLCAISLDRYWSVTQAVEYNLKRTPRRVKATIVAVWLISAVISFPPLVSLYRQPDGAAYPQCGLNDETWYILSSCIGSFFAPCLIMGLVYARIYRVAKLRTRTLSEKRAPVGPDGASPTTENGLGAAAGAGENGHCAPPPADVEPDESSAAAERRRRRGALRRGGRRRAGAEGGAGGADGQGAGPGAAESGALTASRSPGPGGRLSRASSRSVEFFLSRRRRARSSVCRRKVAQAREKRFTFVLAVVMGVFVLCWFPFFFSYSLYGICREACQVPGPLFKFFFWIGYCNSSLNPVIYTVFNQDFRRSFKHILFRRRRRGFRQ

[3] = molecular target: Serine/threonine-protein kinase PLK4 (Homo sapiens) (UniProt O00444); details: Compound concentration 1000.0 nM
[4] = molecular target: Bone morphogenetic protein receptor type-1B (Homo sapiens) (UniProt O00238); details: Compound concentration 1000.0 nM
[5] = molecular target: GABA-A receptor; anion channel (Rattus norvegicus) (UniProt O09028+P15431+P18506+P18508+P19969+P20236+P23574+P23576+P28471+P28473+P30191+P62813+P63079+P63138+Q91ZM7+Q9ES14); details: Compound concentration 10.0 uM
[6] = molecular target: Inhibitor of nuclear factor kappa-B kinase subunit alpha (Homo sapiens) (UniProt O15111); details: Compound concentration 1000.0 nM
Sequence of Inhibitor of nuclear factor kappa-B kinase subunit alpha (Homo sapiens) (O15111 whole entry, canonical isoform): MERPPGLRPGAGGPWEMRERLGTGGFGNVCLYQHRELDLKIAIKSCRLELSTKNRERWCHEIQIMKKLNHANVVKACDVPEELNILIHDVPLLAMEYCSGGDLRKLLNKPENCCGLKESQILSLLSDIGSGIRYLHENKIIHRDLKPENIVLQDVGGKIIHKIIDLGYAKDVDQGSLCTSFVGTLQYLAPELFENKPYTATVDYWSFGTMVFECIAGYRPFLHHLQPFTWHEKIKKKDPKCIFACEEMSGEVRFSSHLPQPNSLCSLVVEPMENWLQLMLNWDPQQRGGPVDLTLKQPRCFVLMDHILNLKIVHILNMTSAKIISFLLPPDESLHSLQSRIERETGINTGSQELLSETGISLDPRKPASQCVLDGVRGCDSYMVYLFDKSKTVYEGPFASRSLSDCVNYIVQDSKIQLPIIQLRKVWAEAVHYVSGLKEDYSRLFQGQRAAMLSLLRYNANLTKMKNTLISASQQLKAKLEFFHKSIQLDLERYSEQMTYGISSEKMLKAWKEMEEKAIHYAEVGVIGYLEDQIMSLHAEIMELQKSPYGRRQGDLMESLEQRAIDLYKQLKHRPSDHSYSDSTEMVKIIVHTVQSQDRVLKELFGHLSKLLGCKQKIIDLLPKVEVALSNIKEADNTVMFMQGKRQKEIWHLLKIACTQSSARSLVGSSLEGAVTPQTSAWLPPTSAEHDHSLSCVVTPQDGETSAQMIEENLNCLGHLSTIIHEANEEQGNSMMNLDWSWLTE

[7] = molecular target: Casein kinase I isoform alpha (Homo sapiens) (UniProt P48729); details: Compound concentration 1000.0 nM
[8] = molecular target: Mitogen-activated protein kinase kinase kinase 11 (Homo sapiens) (UniProt Q16584); details: Compound concentration 1000.0 nM
[9] = molecular target: Mitogen-activated protein kinase 6 (Homo sapiens) (UniProt Q16659); details: Compound concentration 1000.0 nM
[10] = molecular target: Kappa-type opioid receptor (Homo sapiens, UniProt P41145); details: Compound concentration 10.0 uM
[11] = molecular target: Serine/threonine-protein kinase MARK1 (Homo sapiens) (UniProt Q9P0L2); details: Compound concentration 1000.0 nM
[12] = molecular target: Cyclin-dependent kinase 3 (Homo sapiens) (UniProt Q00526); details: Compound concentration 1000.0 nM
[13] = molecular target: Activin receptor type-2B (Homo sapiens) (UniProt Q13705); details: Compound concentration 1000.0 nM
Sequence of Activin receptor type-2B (Homo sapiens) (Q13705 whole entry): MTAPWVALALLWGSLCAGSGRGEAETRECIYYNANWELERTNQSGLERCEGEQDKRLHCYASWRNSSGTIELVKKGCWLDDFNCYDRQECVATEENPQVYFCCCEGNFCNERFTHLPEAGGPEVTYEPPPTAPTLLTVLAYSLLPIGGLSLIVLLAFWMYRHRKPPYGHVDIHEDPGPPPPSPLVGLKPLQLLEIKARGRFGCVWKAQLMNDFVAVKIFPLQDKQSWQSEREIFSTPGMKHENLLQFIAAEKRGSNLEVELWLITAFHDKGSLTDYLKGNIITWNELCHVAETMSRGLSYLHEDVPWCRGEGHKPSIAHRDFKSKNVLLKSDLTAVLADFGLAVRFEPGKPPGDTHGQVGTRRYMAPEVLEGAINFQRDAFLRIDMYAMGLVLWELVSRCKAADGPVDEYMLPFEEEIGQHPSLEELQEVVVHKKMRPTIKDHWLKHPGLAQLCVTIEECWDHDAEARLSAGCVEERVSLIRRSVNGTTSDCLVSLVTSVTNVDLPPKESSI

[14] = molecular target: Myosin-IIIa (Homo sapiens) (UniProt Q8NEV4); details: Compound concentration 1000.0 nM
[15] = molecular target: Cyclin-dependent kinase 15 (Homo sapiens) (UniProt Q96Q40); details: Compound concentration 1000.0 nM
Sequence of Cyclin-dependent kinase 15 (Homo sapiens) (Q96Q40 whole entry): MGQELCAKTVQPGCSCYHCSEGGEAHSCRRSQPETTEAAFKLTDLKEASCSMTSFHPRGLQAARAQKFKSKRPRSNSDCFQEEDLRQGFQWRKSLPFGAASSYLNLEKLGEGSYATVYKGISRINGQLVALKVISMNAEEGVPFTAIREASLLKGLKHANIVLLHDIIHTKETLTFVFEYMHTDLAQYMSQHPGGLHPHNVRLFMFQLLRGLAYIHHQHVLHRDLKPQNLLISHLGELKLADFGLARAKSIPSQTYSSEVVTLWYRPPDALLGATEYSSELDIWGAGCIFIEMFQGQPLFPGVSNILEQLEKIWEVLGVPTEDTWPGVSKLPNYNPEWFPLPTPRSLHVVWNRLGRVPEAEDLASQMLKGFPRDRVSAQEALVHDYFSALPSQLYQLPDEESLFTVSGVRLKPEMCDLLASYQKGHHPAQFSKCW

[16] = molecular target: Myotonin-protein kinase (Homo sapiens) (UniProt Q09013); details: Compound concentration 1000.0 nM
D(2) dopamine receptor = D(2) dopamine receptor (Homo sapiens, UniProt P14416); details: Compound concentration 10.0 uM
[17] = tested on: Phosphatidylinositol 4,5-bisphosphate 3-kinase catalytic subunit alpha isoform (Homo sapiens), P42336 [E545A]; details: Compound concentration 1000.0 nM
Sequence of Phosphatidylinositol 4,5-bisphosphate 3-kinase catalytic subunit alpha isoform (Homo sapiens), P42336 [E545A] (P42336 whole entry E545A, canonical isoform): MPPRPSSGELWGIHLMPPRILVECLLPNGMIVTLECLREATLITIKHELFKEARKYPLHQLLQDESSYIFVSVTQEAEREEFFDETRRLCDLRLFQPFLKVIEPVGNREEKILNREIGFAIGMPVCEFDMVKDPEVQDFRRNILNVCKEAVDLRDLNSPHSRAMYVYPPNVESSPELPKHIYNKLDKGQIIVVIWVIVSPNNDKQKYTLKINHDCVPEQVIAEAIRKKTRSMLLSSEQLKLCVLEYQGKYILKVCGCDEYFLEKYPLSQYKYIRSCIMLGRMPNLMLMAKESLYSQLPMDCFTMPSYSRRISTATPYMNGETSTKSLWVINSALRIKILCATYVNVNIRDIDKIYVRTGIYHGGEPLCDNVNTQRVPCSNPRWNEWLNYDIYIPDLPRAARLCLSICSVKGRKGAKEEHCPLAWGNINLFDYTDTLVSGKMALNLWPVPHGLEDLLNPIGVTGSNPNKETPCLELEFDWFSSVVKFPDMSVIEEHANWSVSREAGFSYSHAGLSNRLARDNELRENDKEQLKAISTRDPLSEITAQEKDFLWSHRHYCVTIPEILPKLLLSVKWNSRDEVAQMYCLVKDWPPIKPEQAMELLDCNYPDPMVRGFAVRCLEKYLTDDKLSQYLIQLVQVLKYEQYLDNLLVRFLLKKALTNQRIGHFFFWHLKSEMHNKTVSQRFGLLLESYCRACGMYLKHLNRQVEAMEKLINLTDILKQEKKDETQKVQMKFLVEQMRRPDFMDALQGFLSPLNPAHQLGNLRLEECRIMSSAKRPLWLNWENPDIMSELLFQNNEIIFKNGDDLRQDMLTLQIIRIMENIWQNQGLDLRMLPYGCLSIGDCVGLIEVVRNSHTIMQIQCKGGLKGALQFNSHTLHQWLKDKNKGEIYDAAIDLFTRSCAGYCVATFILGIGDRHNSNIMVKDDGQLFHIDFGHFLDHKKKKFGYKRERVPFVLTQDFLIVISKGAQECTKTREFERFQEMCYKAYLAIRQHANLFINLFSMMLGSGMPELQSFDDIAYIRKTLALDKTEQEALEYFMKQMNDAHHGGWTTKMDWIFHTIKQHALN

[18] = tested on: Hepatocyte growth factor receptor (Homo sapiens), P08581 [M1250T]; details: Compound concentration 1000.0 nM
[19] = molecular target: Serine/threonine-protein kinase WNK3 (Homo sapiens) (UniProt Q9BYP7); details: Compound concentration 1000.0 nM
[20] = molecular target: T2, 5-hydroxytryptamine receptor 1A (Homo sapiens) (UniProt P08908); details: Compound concentration 10.0 uM
T2 sequence (whole entry): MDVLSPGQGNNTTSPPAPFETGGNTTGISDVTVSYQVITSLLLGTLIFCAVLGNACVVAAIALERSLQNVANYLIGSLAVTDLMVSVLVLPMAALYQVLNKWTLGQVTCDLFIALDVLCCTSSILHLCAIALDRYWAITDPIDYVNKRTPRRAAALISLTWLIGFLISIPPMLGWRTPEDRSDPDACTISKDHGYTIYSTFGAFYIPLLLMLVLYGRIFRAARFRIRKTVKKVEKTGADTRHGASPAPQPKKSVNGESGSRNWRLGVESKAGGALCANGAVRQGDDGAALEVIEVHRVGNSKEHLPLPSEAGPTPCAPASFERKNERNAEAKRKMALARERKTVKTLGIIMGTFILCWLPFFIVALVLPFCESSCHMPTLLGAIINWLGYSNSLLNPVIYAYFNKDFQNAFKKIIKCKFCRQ

[21] = molecular target: Alpha-2A adrenergic receptor (Homo sapiens, UniProt P08913); test: GPCRScan assay: inhibition of Alpha2A; parameters: radioligand conc. used [nm] 1.0 – 3.0, parental cells stable MDCK
[22] = molecular target: Mitogen-activated protein kinase 15 (Homo sapiens) (UniProt Q8TD08); details: Compound concentration 1000.0 nM
D(1A) dopamine receptor = D(1A) dopamine receptor (Homo sapiens, UniProt P21728); test: GPCRScan assay: inhibition of D1; parameters: radioligand conc. used [nm] 0.6 – 1.3, parental cells HEKT
Sequence of D(1A) dopamine receptor (P21728 whole entry, the tested form may be a part): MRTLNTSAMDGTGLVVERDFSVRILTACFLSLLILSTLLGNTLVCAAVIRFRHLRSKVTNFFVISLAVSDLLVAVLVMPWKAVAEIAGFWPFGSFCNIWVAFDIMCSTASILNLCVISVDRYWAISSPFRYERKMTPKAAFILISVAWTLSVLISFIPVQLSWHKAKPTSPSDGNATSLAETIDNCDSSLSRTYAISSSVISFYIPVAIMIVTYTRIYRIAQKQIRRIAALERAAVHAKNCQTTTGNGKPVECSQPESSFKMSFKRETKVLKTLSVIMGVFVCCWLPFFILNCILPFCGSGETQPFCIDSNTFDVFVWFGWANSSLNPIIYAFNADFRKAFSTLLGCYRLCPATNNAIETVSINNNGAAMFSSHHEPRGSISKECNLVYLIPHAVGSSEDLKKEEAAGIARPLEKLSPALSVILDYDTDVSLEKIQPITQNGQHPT

[23] = molecular target: LIM domain kinase 1 (Homo sapiens) (UniProt P53667); details: Compound concentration 1000.0 nM
[24] = tested on: Mast/stem cell growth factor receptor Kit (Homo sapiens), P10721 [V559D]; details: Compound concentration 1000.0 nM
[25] = molecular target: Casein kinase I isoform epsilon (Homo sapiens) (UniProt P49674); details: Compound concentration 1000.0 nM
[26] = molecular target: NUAK family SNF1-like kinase 2 (Homo sapiens) (UniProt Q9H093); details: Compound concentration 1000.0 nM
[27] = molecular target: G protein-coupled receptor kinase 4 (Homo sapiens) (UniProt P32298); details: Compound concentration 1000.0 nM
[28] = molecular target: Serine/threonine-protein kinase SBK1 (Homo sapiens) (UniProt Q52WX2); details: Compound concentration 1000.0 nM
Sequence of Serine/threonine-protein kinase SBK1 (Homo sapiens) (Q52WX2 whole entry): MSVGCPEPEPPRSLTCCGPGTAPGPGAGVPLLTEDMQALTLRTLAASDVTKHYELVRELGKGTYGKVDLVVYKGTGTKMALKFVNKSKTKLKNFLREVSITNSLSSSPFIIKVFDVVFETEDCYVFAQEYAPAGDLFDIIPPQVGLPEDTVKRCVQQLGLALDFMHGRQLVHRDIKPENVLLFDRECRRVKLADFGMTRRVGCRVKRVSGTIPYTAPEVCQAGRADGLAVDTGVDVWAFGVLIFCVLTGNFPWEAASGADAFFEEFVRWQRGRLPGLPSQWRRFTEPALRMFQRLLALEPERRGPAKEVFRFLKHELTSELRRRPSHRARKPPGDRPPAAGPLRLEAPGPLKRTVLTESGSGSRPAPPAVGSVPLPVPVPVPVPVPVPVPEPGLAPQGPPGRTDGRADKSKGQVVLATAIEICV

Histamine H4 receptor = Histamine H4 receptor (Homo sapiens, UniProt Q9H3N8); details: Compound concentration 10.0 uM
Sequence of Histamine H4 receptor (Q9H3N8 whole entry): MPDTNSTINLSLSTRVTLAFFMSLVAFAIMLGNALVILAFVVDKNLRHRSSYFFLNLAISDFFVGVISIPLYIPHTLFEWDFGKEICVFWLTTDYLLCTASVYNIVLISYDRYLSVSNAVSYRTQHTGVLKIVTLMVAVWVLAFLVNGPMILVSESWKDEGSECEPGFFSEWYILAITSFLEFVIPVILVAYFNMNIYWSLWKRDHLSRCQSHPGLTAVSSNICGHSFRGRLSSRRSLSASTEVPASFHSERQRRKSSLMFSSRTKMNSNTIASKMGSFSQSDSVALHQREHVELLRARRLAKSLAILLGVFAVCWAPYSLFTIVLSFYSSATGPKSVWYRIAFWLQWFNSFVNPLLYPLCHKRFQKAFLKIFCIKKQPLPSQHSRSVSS

[29] = molecular target: Cytoplasmic tyrosine-protein kinase BMX (Homo sapiens) (UniProt P51813); details: Compound concentration 1000.0 nM

Sequence of Phosphatidylinositol 3-kinase catalytic subunit type 3 (Homo sapiens) (Q8NEB9 whole entry): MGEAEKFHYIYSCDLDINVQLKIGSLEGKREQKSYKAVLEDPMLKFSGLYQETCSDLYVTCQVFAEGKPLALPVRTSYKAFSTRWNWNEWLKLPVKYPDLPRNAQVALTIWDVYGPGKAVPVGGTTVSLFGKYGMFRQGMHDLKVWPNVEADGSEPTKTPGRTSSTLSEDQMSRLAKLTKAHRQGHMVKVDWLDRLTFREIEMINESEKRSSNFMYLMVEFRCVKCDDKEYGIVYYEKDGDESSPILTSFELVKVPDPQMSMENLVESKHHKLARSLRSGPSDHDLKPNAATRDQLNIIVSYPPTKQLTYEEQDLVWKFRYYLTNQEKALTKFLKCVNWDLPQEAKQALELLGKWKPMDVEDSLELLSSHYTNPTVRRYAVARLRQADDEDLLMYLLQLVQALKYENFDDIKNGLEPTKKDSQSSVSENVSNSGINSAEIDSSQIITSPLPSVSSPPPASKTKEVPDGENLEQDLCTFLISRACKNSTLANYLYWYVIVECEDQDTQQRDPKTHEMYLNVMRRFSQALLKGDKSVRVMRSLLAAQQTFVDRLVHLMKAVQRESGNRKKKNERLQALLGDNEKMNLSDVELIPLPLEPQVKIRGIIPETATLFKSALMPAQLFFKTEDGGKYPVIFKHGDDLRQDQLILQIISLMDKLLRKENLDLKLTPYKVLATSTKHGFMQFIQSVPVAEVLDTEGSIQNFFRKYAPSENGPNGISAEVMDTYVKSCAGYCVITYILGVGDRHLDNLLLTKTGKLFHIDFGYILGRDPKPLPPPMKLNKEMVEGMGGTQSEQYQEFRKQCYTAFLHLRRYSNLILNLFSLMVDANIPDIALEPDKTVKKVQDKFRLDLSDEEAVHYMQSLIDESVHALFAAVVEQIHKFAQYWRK

Row | Compound | residual activity [1] | Ki ([2]; read-out: Ki) | Ki ([2]; read-out: pKi (converted)) | residual activity [3] | residual activity [4] | inhibition [5] | residual activity [6] | residual activity [7] | residual activity [8] | residual activity [9] | inhibition [10] | residual activity [11] | residual activity [12] | residual activity [13] | residual activity [14] | residual activity [15] | residual activity [16] | inhibition (D(2) dopamine receptor) | residual activity [17] | residual activity [18] | other results
1 | CNCc1ccccc1-c1csc([C@@H](C)Nc2nc(C)nc3cc(OC)c(OC)cc23)c1 [BAY-293] | 100% | 0.131 µM | 0.13 µM | 74% | 83% | 12.3% | 100% | 73% | 99% | 100% | 26.9% | 100% | 100% | 100% | 100% | 100% | 86% | 32.3% | 91% | 79% | residual activity [19]: 100%; inhibition [20]: 56.5%; Ki [21]: 0.381 µM; residual activity [22]: 100%; Ki (D(1A) dopamine receptor; read-out: Ki): 1.27 µM; residual activity [23]: 99%; residual activity [24]: 100%; residual activity [25]: 99%; residual activity [26]: 97%; residual activity [27]: 80%; residual activity [28]: 100%; inhibition (Histamine H4 receptor): 42.1%; residual activity [29]: 49%
2 | CNCc1ccccc1-c1csc([C@H](C)Nc2nc(C)nc3cc(OC)c(OC)cc23)c1 [BAY-294] | 93% | 0.0952 µM | 0.0912 µM | 76% | 100% | 9.67% | 90% | 74% | 100% | 100% | 64.4% | 100% | 100% | 100% | 100% | 100% | 85% | 50.6% | 97% | 96% | residual activity [19]: 98%; inhibition [20]: 93.8%; Ki [21]: 0.127 µM; residual activity [22]: 100%; Ki (D(1A) dopamine receptor; read-out: Ki): 0.718 µM; Ki (D(1A) dopamine receptor; read-out: pKi (converted)): 0.562 µM; residual activity [23]: 100%; residual activity [24]: 100%; residual activity [25]: 91%; residual activity [26]: 100%; residual activity [27]: 97%; residual activity [28]: 100%; inhibition (Histamine H4 receptor): 67%; residual activity [29]: 58%
